Read-outs that look alike come from different tables or passages of the source. Blank lines part the entries; values can stand above or below the compound they belong to.
Key:
Type in all cases: binding
[1] = target: T1, CRBN Cys287 (Homo sapiens, UniProt Q96SW2); experiment: Inhibition of iodoacetamide probe labeling of CRBN cysteines, cell lysate (Table 3A)
T1 construct: endogenous in cells
Experimental: (§1) “X@Y” means that x % inhibition of iodoacetamide probe labeling was observed by treatment of cell lysate with the give compound in each row of the table for 1 h at a concentration of y micromolar. There was consistently high inhibition at C318 in addition to C287, which can be attributed to an allosteric inhibition.

[2] = target: T2, CRBN Cys343 (Homo sapiens, UniProt Q96SW2); experiment: as above
T2 construct: endogenous in cells
T2 sequence (Q96SW2 whole entry): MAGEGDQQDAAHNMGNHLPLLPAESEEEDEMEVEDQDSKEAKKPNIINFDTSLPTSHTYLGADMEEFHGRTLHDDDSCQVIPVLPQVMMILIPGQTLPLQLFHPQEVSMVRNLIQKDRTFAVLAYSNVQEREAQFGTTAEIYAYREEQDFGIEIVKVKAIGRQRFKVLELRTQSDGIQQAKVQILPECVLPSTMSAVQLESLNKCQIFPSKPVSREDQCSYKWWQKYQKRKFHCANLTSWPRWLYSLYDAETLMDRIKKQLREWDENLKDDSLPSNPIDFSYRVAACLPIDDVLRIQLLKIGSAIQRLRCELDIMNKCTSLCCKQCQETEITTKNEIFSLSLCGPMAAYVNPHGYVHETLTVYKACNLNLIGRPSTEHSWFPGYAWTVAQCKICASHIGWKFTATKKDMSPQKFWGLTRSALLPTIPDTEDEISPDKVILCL
Experimental: as §1

[3] = target: T3, CRBN Cys318 (Homo sapiens, UniProt Q96SW2); experiment: as above
T3 construct: endogenous in cells
T3 sequence (Q96SW2 whole entry): as above
Experimental: as §1

[4] = target: T4, CRBN Cys205 (Homo sapiens, UniProt Q96SW2); experiment: as above; settings: read-out: % inhibition of iodoacetamide probe labeling, Cys205
T4 construct: endogenous in cells
T4 sequence (Q96SW2 whole entry): as above
Experimental: as §1

[5] = target: T5, CRBN Cys234 (Homo sapiens, UniProt Q96SW2); experiment: as above; settings: read-out: % inhibition of iodoacetamide probe labeling, Cys234
T5 construct: endogenous in cells
T5 sequence (Q96SW2 whole entry): as above
Experimental: as §1

[6] = target: T6, CRBN Cys219 (Homo sapiens, UniProt Q96SW2); experiment: as above; settings: read-out: % inhibition of iodoacetamide probe labeling, Cys219
T6 construct: endogenous in cells
T6 sequence (Q96SW2 whole entry): as above
Experimental: as §1

[7] = target: T7, CRBN Cys188 (Homo sapiens, UniProt Q96SW2); experiment: as above; settings: 500 micromolar, cell lysate, 1 h
T7 construct: endogenous in cells
T7 sequence (Q96SW2 whole entry): as above
Experimental: as §1

[8] = target: T8, CRBN Cys366 (Homo sapiens, UniProt Q96SW2); experiment: as above; settings: 500 micromolar, cell lysate, 1 h
T8 construct: endogenous in cells
T8 sequence (Q96SW2 whole entry): as above
Experimental: as §1

[9] = target: CRBN-318 (Homo sapiens, UniProt Q96SW2); experiment: Probe labeling at native and denatured states after pretreatment (Table 2); set-up: endogenous in cells; host or cells: cell lysate
CRBN-318, sequence (Q96SW2 whole entry): as above
Experimental: (§2) To determine whether the co-inhibition of C287 and C318 was due to a direct or indirect mechanism, CRBN was pretreated with various Michael acceptor compounds and then tested for probe labeling in its native and denatured states.
(§3) In each the cell lysate was pretreated with compound, for native state data the probe was immediately added and for denatured data the probe was added after an additional step of denaturation (schematic shown in FIG. 4).

[10] = target: CRBN-287 (Homo sapiens, UniProt Q96SW2); experiment: as above; set-up: endogenous in cells; host or cells: cell lysate
CRBN-287, sequence (Q96SW2 whole entry): as above
Experimental: as §2, §3

[11] = target: T9, CRBN_219 (Homo sapiens, UniProt Q96SW2); experiment: as above
T9 construct: endogenous in cells; host or cells: cell lysate
T9 sequence (Q96SW2 whole entry): as above
Experimental: as §2, §3

[12] = target: T10, CRBN_188 (Homo sapiens, UniProt Q96SW2); experiment: as above
T10 construct: endogenous in cells; host or cells: cell lysate
T10 sequence (Q96SW2 whole entry): as above
Experimental: as §2, §3

[13] = target: T11, CRBN_234 (Homo sapiens, UniProt Q96SW2); experiment: as above
T11 construct: endogenous in cells; host or cells: cell lysate
T11 sequence (Q96SW2 whole entry): as above
Experimental: as §2, §3

[14] = target: T12, CRBN_322 (Homo sapiens, UniProt Q96SW2); experiment: as above
T12 construct: endogenous in cells; host or cells: cell lysate
T12 sequence (Q96SW2 whole entry): as above
Experimental: as §2, §3

[15] = target: T13, CRBN_343 (Homo sapiens, UniProt Q96SW2); experiment: as above
T13 construct: endogenous in cells; host or cells: cell lysate
T13 sequence (Q96SW2 whole entry): as above
Experimental: as §2, §3

[16] = target: T14, CRBN_310 (Homo sapiens, UniProt Q96SW2); experiment: as above
T14 construct: endogenous in cells; host or cells: cell lysate
T14 sequence (Q96SW2 whole entry): as above
Experimental: as §2, §3

[17] = target: T15, CRBN_205 (Homo sapiens, UniProt Q96SW2); experiment: as above
T15 construct: endogenous in cells; host or cells: cell lysate
T15 sequence (Q96SW2 whole entry): as above
Experimental: as §2, §3

[18] = target: T16, CRBN_441 (Homo sapiens, UniProt Q96SW2); experiment: as above
T16 construct: endogenous in cells; host or cells: cell lysate
T16 sequence (Q96SW2 whole entry): as above
Experimental: as §2, §3

[19] = target: T17, CRBN_326 (Homo sapiens, UniProt Q96SW2); experiment: as above
T17 construct: endogenous in cells; host or cells: cell lysate
T17 sequence (Q96SW2 whole entry): as above
Experimental: as §2, §3

[20] = target: T18, TEC_449 (Homo sapiens, UniProt P42680); experiment: as above; settings: screening concentration
T18 construct: In each the cell lysate was pretreated with compound; endogenous in cells
T18 sequence (P42680 1-631): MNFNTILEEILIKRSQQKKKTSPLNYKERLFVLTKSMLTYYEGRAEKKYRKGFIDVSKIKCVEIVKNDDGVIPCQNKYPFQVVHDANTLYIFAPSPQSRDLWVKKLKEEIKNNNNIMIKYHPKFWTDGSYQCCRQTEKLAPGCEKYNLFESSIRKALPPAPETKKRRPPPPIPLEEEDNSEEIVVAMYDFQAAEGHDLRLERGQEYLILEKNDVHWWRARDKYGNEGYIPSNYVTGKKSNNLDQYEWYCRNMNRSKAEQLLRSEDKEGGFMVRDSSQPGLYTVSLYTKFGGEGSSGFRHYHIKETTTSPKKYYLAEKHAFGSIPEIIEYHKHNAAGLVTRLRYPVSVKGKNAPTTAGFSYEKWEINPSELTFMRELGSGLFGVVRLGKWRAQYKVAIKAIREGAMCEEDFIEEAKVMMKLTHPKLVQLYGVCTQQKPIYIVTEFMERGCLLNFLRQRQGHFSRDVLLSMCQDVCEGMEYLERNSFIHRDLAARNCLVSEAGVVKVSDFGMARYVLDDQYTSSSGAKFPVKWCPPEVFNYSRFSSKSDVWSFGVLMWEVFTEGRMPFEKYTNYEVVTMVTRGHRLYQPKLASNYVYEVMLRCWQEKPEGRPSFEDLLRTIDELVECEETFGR

[21] = target: T19, BTK_481 (Homo sapiens, UniProt Q06187); experiment: as above; settings: screening concentration
T19 construct: In each the cell lysate was pretreated with compound; endogenous in cells
T19 sequence (Q06187 whole entry): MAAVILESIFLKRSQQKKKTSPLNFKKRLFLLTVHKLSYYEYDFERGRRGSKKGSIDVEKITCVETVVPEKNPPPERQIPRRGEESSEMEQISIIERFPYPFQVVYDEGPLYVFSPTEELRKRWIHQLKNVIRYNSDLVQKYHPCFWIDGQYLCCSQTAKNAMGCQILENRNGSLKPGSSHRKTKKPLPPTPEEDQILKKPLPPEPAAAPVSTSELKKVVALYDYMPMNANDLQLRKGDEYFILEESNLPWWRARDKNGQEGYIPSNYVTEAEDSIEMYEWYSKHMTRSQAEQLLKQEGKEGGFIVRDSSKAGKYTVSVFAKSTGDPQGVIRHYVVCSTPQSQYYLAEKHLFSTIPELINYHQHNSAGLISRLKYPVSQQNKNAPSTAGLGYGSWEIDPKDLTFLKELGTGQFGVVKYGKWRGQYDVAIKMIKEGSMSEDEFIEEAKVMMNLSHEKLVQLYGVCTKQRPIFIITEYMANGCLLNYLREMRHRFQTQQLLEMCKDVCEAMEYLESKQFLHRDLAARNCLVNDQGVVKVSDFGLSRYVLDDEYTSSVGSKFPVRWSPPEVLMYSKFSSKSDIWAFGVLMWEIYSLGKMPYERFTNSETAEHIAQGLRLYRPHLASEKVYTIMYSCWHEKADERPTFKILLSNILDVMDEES

[22] = 0.8 micromolar, cell lysate, 1 h
[23] = 20 micromolar, cell lysate, 1 h
[24] = read-out: % inhibition of iodoacetamide probe labeling, Cys287
[25] = 500 micromolar, cell lysate, 1 h

T1 sequence (Q96SW2 whole entry): as the sequence (Q96SW2 whole entry) above

inhibition at 0.8 µM [1, 22]: 80%
inhibition at 20 µM [1, 23]: 94%
inhibition at 100 µM [1, 24]: 96%
inhibition at 500 µM [1, 24]: 98%
inhibition at 100 µM ([2]; read-out: % inhibition of iodoacetamide probe labeling, Cys343): 10%
inhibition at 0.8 µM [3, 22]: 76%
inhibition at 20 µM [3, 23]: 90%
inhibition at 100 µM ([3]; read-out: % inhibition of iodoacetamide probe labeling, Cys318, 100 micromolar, cell lysate, 1 h): 93%
inhibition at 500 µM ([3]; read-out: % inhibition of iodoacetamide probe labeling, Cys318, 500 micromolar, cell lysate, 1 h): 96%
inhibition at 100 µM [4]: 19%
inhibition at 500 µM [4]: 32%
inhibition at 100 µM [5]: 31%
inhibition at 500 µM [5]: 44%
inhibition at 100 µM [6]: -5%
inhibition at 500 µM [6]: 4%
SMILES: COc1ccccc1-c1cccc(OC2CN(C(=O)/C(C#N)=C/C(C)C)C2)c1 [Example A8]

inhibition at 500 µM [7]: 9%
inhibition at 500 µM ([1]; 500 micromolar, cell lysate, 1 h, read-out: % inhibition of iodoacetamide probe labeling, Cys287): 91%
inhibition at 500 µM [8]: 2%
inhibition at 500 µM [2, 25]: -6%
inhibition at 500 µM [4, 25]: 18%
inhibition at 500 µM [6, 25]: 31%
SMILES: C=CC(=O)N1CCC(Oc2cc(C(=O)N(C)C)cc(-c3ccccc3OC)c2)CC1 [Example A2]

inhibition of probe labeling, CRBN_318, Den. [9]: 11%
inhibition of probe labeling, CRBN_287, Den. [10]: 67%
inhibition of probe labeling, CRBN_219, Den. [11]: 24%
inhibition of probe labeling, CRBN_219, Nat. [11]: −6%
inhibition of probe labeling, CRBN_188, Den. [12]: −21%
inhibition of probe labeling, CRBN_188, Nat. [12]: −13%
inhibition of probe labeling, CRBN_234, Den. [13]: −7%
inhibition of probe labeling, CRBN_234, Nat. [13]: −4%
inhibition of probe labeling, CRBN_322, Den. [14]: 15%
inhibition of probe labeling, CRBN_322, Nat. [14]: 36%
inhibition of probe labeling, CRBN_343, Den. [15]: −28%
inhibition of probe labeling, CRBN_310, Den. [16]: −1%
inhibition of probe labeling, CRBN_310, Nat. [16]: 9%
inhibition of probe labeling, CRBN_205, Den. [17]: −11%
inhibition of probe labeling, CRBN_205, Nat. [17]: −23%
inhibition of probe labeling, CRBN_441, Den. [18]: −24%
inhibition of probe labeling, CRBN_326, Den. [19]: −16%
inhibition of probe labeling, TEC_449, Den. ([20]; denatured state): 98%
inhibition of probe labeling, TEC_449, Nat. ([20]; native state): 99%
inhibition of probe labeling, BTK_481, Den. ([21]; denatured state): 99%
inhibition of probe labeling, BTK_481, Nat. ([21]; native state): 99%
SMILES: C=CC(=O)N1CC(Cc2ccc(C)cc2)C1

Reference: patent US20220298213A1, “IN VIVO ENGINEERED CEREBLON PROTEIN” (Vividion Therapeutics, Inc., priority 2018, published 2022)
